Source: the NIST ThermoML archive (doi:10.1021/je500380x)

Assay: mn = molality of the nth substance listed, in mol/kg
Settings: 100 kPa, Liquid; for electrical conductivity: Alternating current cell with electrodes; for viscosity: Falling or rolling sphere viscometry; for mass density: Vibrating tube method

CCC(=O)OCCN1CCNCC1 [2-(piperazin-1-yl)ethyl propionate] + CO
Settings | electrical conductivity, 293.15 K [S/m] | electrical conductivity, 298.15 K [S/m] | mass density, 293.15 K [kg/m3] | mass density, 298.15 K [kg/m3] | viscosity, 293.15 K [mPa·s] | viscosity, 298.15 K [mPa·s]
m1 = 0.05 | 0.128 | 0.132 | 794.44 | 789.75 | 0.613 | 0.576
m1 = 0.1001 | 0.211 | 0.218 | 797.52 | 792.84 | 0.632 | 0.592
m1 = 0.2006 | 0.339 | 0.351 | 803.64 | 798.96 | 0.675 | 0.629
m1 = 0.3003 | 0.432 | 0.448 | 809.65 | 805.01 | 0.72 | 0.671
m1 = 0.3995 | 0.506 | 0.525 | 815.7 | 811.06 | 0.771 | 0.716
m1 = 0.5005 | 0.566 | 0.59 | 821.73 | – | 0.828 | 0.767
m1 = 0.6006 | 0.617 | 0.644 | 827.94 | – | 0.89 | 0.823
m1 = 0.7007 | 0.657 | 0.686 | 834.12 | – | 0.954 | 0.881
m1 = 0.8007 | 0.688 | 0.72 | 840.22 | – | 1.033 | 0.952
m1 = 0.9008 | 0.712 | 0.748 | 846.35 | – | 1.118 | 1.029
m1 = 1.001 | 0.732 | 0.77 | 852.36 | – | 1.219 | 1.117
m1 = 1.2 | 0.757 | 0.794 | 864.62 | – | 1.426 | 1.303
m1 = 1.401 | 0.752 | 0.797 | 877.59 | – | 1.719 | 1.562
m1 = 1.6 | 0.737 | 0.784 | 890.02 | – | 2.09 | 1.888
m1 = 1.801 | 0.706 | 0.755 | 903.1 | – | 2.581 | 2.319
m1 = 2 | 0.656 | 0.708 | 916.07 | – | 3.261 | 2.909
m1 = 2.203 | 0.605 | 0.653 | 929.95 | – | 4.138 | 3.661
m1 = 2.403 | 0.542 | 0.587 | 942.83 | – | 5.479 | 4.801
m1 = 2.603 | 0.479 | 0.518 | 955.65 | – | 7.28 | 6.312
m1 = 2.803 | 0.409 | 0.457 | 969.71 | – | 9.916 | 8.495
m1 = 3.001 | – | – | 982.22 | – | 14.36 | 12.13
m1 = 3.006 | 0.342 | 0.392 | – | – | – | –
